Reference: patent publication US20100227853A1, “INHIBITORS OF CYCLIC AMP PHOSPHODIESTERASES” (Trustees of Boston College, priority 2008, published 2010)
One block for each compound: values may come before it.

How the values were obtained:
[1] = test system: PDE4A, PDE4B, PDE4D, PDE7A, PDE7B, PDE8A, PDE3A; test: Summary of PDE inhibitor profile; design: key: (1): Strong PDE7A inhibitor, weak to moderate PDE4A, 4B inhibitor; (2): Strong PDE7A and PDE4s (including PDE4D) inhibitor; (3): Strong PDE7A inhibitor; conditions: overall classification, Table 18 footnotes
[2] = target: PDE7B (Homo sapiens, UniProt Q9NP56); test: 5FOA growth assay in fission yeast strain expressing PDE7B; format: cell-based; design: targets used in the assays are full-length proteins (as opposed to simply the catalytic domain); expressed in transfected cells; host or cells: Schizosaccharomyces pombe; conditions: OD600 0.6; read-out: ED50 for 5FOA growth assays, PDE7B
Description: PDE inhibition allows growth in 5FOA medium as measured by optical density after 48 hours incubation at 30° C. Compound BC12 and six structural analogs were tested for growth stimulation.
Cells were pregrown in EMM medium [MP Biomedicals (Solon, Ohio), 3% glucose, filter-sterilized to avoid carmelization, which would introduce variability into the optical density of the medium] containing from 0 mM to 2.5 mM cAMP (or either 0.5 mM or 1.0 mM cGMP). This was to repress expression of the fbp1-ura4 reporter prior to exposure of cells to 5FOA medium. Cells were grown at 30° C. to exponential phase (approximately 10^7 cells/ml). Cells were collected by centrifugation and resuspended in 5FOA medium, and 25 μl were transferred to 384-well microtiter dishes (untreated, with flat clear bottoms) that had been pre-filled with 25 μl 5FOA medium and pre-pinned with 100 nl of compounds (stock solutions were generally 10 mM). Starting cell concentrations ranged from 0.5×10^5 to 4×10^5 cells/ml depending on the screening strain. […] Other positive control dishes contained 5 mM cAMP in the 5FOA medium for PDEs that lack appropriate control compounds. Cultures were grown for 48 hours at 30° C., sealed in an airtight container with moist paper towels to prevent evaporation. Optical densities (OD600) of cultures were measured using a microplate reader. Bioinformatic analysis of the results to determine composite Z scores was performed as previously described (1, 3).

[3] = target: PDE4A (Homo sapiens, UniProt P27815); test: in vitro enzyme assay PDE4A (Table 7); format: biochemical; conditions: 2 micromolar compound; read-out: percent of PDE activity present, PDE4A
[4] = target: PDE7A (Homo sapiens, UniProt Q13946); test: in vitro enzyme assay PDE7A; format: biochemical; design: made in house; host or cells: E. coli; conditions: 2 micromolar compound; read-out: percent of PDE activity present, PDE7A
[5] = target: PDE4B (Homo sapiens, UniProt Q07343); test: in vitro enzyme assay PDE4B (Table 7); format: biochemical; conditions: 2 micromolar compound; read-out: percent of PDE activity present, PDE4B
[6] = target: PDE4D (Homo sapiens, UniProt Q08499); test: in vitro enzyme assay PDE4D (Table 7); format: biochemical; conditions: 2 micromolar compound; read-out: percent of PDE activity present, PDE4D
[7] = target: T1, PDE4A10 (Homo sapiens, UniProt P27815); test: in vitro enzyme assay, E. coli expressed and purified PDE4A10; format: biochemical; conditions: read-out: IC50 (or AC200), PDE4A10
T1 construct: made in house; host or cells: E. coli

[8] = target: PDE4B2 (Homo sapiens, UniProt Q07343); test: in vitro enzyme assay, E. coli expressed and purified PDE4B2; format: biochemical; design: targets used in the assays are full-length proteins (as opposed to simply the catalytic domain); conditions: read-out: IC50 (or AC200), PDE4B2
[9] = target: T2, PDE4D2-CAT (Homo sapiens, UniProt Q08499); test: in vitro enzyme assay, catalytic fragment of PDE4D2 (residues 86-413); format: biochemical; conditions: catalytic fragment; AC200 = [Compound] that doubles PDE activity; read-out: IC50 (or AC200), PDE4D2-CAT
T2 construct: 86-413; made in house; host or cells: E. coli

[10] = target: T3, PDE4D2-FL (Homo sapiens, UniProt Q08499); test: in vitro enzyme assay, full-length PDE4D2 (residues 1-507); format: biochemical; conditions: read-out: IC50 (or AC200), PDE4D2-FL
T3 construct: 1-507; made in house; host or cells: E. coli

Chain of PDE7B (Q9NP56 whole entry, species assumed, the tested form may be a part): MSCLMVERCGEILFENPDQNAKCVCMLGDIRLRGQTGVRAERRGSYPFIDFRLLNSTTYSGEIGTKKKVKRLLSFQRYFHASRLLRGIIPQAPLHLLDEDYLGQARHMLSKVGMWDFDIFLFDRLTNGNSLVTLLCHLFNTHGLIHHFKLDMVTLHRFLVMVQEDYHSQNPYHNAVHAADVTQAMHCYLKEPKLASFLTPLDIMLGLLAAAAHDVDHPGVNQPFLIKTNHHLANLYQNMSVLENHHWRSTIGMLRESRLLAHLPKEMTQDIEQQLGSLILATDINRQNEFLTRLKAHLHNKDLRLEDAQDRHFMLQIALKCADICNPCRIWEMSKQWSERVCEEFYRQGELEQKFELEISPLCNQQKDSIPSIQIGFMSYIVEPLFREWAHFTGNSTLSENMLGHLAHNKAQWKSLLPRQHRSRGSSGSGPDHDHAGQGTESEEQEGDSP
Chain of PDE4D (Q08499 whole entry): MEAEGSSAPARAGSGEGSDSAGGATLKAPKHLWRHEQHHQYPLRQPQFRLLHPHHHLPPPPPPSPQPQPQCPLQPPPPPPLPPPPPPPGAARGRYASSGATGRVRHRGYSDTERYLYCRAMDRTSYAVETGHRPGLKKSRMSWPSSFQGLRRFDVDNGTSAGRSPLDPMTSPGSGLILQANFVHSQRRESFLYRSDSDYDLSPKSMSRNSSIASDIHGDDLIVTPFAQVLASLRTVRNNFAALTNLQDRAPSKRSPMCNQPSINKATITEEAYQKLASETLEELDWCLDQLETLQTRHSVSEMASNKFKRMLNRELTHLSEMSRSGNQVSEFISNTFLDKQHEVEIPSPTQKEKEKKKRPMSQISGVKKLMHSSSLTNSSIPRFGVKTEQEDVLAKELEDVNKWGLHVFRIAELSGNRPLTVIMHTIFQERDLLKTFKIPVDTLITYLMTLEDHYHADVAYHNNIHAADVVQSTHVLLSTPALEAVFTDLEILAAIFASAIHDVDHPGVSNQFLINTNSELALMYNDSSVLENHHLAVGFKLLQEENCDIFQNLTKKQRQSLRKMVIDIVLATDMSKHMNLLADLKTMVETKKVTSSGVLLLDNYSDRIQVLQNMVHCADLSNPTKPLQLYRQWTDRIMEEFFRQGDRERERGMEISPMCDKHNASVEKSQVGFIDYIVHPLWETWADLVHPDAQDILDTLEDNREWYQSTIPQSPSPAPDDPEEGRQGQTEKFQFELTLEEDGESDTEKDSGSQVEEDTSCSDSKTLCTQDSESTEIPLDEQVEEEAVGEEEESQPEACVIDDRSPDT
T1 sequence (P27815 1-825 isoform P27815-6, species assumed): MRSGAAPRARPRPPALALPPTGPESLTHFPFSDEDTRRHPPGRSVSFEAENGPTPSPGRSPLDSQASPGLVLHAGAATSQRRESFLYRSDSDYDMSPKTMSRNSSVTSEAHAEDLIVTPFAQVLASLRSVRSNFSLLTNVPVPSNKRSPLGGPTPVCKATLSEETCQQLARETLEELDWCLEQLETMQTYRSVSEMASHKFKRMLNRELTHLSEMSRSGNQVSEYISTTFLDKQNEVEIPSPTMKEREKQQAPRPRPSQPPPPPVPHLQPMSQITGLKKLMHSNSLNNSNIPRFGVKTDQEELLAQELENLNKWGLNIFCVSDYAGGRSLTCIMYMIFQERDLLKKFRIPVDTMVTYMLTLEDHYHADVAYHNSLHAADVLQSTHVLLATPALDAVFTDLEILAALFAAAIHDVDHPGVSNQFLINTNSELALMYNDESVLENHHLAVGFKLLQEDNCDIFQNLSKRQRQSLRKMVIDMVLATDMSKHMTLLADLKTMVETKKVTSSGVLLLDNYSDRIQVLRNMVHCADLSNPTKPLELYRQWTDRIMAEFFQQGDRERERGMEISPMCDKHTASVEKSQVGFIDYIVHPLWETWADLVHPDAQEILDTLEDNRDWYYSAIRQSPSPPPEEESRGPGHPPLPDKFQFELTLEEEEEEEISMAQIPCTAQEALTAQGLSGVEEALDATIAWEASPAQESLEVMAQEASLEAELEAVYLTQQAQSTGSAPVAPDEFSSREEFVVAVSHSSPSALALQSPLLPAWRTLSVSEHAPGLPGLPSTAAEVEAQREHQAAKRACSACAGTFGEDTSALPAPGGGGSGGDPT
T2 sequence (Q08499 388-715): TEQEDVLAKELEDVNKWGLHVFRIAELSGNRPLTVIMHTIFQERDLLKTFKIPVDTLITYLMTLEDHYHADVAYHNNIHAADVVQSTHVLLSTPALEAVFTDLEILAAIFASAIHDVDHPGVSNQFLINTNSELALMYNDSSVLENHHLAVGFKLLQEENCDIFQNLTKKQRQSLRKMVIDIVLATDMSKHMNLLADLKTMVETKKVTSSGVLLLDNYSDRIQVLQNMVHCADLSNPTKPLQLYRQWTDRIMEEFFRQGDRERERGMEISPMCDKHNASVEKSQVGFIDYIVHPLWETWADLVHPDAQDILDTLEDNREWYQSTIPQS
Chain of PDE4B (Q07343 whole entry, species assumed): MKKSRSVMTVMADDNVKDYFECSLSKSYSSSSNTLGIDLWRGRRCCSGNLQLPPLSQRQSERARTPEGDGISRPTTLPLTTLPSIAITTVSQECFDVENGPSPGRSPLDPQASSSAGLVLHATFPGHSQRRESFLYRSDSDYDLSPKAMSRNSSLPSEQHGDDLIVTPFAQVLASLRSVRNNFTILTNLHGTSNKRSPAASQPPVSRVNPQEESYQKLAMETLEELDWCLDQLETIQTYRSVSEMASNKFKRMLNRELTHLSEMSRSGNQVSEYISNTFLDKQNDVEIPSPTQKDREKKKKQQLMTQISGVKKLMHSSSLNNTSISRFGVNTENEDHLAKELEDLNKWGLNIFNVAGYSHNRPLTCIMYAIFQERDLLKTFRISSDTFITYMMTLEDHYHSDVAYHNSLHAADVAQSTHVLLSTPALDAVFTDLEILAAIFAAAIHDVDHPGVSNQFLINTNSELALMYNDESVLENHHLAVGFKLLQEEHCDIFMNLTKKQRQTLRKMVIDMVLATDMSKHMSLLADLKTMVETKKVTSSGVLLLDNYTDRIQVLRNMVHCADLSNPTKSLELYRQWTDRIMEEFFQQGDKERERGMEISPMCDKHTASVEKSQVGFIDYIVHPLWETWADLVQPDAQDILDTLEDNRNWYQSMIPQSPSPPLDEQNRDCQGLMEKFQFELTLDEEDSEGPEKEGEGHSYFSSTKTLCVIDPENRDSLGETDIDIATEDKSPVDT
Chain of PDE4A (P27815 whole entry, species assumed): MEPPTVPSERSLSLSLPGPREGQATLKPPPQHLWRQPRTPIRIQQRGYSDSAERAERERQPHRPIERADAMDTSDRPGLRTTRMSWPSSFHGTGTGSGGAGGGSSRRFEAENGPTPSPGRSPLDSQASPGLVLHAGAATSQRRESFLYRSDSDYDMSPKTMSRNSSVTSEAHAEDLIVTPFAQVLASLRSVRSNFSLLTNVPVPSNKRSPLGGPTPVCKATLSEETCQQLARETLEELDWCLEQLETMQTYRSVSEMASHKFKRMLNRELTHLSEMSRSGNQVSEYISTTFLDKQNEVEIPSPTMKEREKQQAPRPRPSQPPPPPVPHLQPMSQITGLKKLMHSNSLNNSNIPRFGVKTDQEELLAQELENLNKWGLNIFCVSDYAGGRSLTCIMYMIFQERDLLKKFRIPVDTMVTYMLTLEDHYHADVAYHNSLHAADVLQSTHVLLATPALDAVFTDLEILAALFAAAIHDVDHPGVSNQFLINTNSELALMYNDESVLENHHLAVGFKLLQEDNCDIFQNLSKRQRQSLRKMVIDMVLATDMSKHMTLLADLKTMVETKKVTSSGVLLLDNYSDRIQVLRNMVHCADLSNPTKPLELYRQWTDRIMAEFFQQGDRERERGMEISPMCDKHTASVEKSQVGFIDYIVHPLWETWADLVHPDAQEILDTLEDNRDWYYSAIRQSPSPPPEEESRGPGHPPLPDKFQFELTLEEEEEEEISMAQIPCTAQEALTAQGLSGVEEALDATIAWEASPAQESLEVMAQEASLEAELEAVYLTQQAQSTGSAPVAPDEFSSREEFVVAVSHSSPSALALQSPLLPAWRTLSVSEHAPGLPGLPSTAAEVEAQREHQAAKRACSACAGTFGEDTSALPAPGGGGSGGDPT
Chain of PDE4B2 (Q07343 1-564 isoform Q07343-2, species assumed): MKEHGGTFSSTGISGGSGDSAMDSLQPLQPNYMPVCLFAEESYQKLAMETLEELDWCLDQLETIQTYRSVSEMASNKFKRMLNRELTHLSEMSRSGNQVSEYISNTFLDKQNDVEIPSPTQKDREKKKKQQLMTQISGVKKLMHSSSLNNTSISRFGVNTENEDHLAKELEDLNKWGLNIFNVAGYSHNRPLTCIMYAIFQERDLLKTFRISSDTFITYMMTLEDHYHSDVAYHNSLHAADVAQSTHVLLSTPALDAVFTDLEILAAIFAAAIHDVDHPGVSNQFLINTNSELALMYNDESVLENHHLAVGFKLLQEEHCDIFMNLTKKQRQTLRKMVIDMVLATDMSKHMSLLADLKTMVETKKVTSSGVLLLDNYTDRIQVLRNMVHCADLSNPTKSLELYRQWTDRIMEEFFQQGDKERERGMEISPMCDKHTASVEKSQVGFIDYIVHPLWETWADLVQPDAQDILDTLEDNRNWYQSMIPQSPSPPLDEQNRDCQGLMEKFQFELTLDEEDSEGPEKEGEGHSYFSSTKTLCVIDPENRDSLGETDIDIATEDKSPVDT

Compound: Cc1ccc2c(c1)CCC1CC(=O)CC[C@]21C (stereo partly drawn) [Compound 2158J12]
PDE inhibitor profile (Table 18) [1]: 2158J12 (2)

Compound: N#Cc1sc2sc(C#N)c(-c3ccco3)c2c1N [Compound 30]
IC50 [7]: > 2000 nM
IC50 [8]: ~2000 nM
IC50 [9]: < 100 nM
IC50 [10]: > 2000 nM

Compound: COc1ccc2c(c1)[C@@]1(C)CCC[C@](C)(CO)C1CC2 (stereo partly drawn) [Compound 2067M03]
PDE inhibitor profile (Table 18) [1]: 2067M03 (1)

Continued, values first:

EC50 [2]: > 200000 nM
Compound: Cc1sc2ncnc(Nc3ccccc3)c2c1C [BC64]

remaining activity at 2 µM [3]: 84%
remaining activity at 2 µM [4]: 52%
remaining activity at 2 µM [5]: 72%
remaining activity at 2 µM [6]: 77%
Compound: Cc1c(C(=O)Nc2ccc(F)cc2F)sc2ncnc(N(C)c3ccccc3)c12 [Compound 58-9]

EC50 [2]: 2100 nM
Compound: CCN(CC)c1ncnc2sc3c(c12)CCCC3 [BC44]
